From patent US7148325B2, “Chimeric retroviral gag genes and screening assays” (priority 2000, dated 2006)
“Also recorded” adds a separate entry of the source.

Experiments:
Chimera 4 = biological target: T1, Chimera 4 (Human immunodeficiency virus type 1 group M subtype B, UniProt P04591); assay: In vitro transcription/translation and assembly, sucrose density gradient fractionation and SDS-PAGE, Chimera 4 Gag; format: biochemical, HIV / M-PMV; details: added with cyclohexamide after 30 minutes of incubation, reaction continued 90 minutes
T1 construct: the megaprimer reaction yielded a product that contained all of HIV Gag fused to M-PMV p12; made in house; host or cells: cell-free: in vitro transcription/translation (reticulocyte lysate) from plasmid pDABCh4
Procedure: (§1) FIGS. 4A–D—In vitro transcription and translation reactions using plasmids containing M-PMV and Chimera 4 gag genes. After 30 minutes of incubation, cyclohexamide (left panels, FIGS. 4A and 4C) or cyclohexamide plus bis-ANS (right panels, FIGS. 4B and 4D) were added to the reactions. The reactions were then allowed to continue for an additional 90 minutes. Assembled products were analyzed by sucrose density gradient fractionation and SDS-PAGE. Like M-PMV, the formation of sedimented material by Chimera 4 has been inhibited by the addition of bis-ANS. Lanes L and P indicate the loading material and re-suspended pellet, respectively.
(§2) In vitro assembly assays, such as that taught by Sakalian, M., et al. (1996), “Synthesis and assembly of retrovirus Gag precursors into immature capsids in vitro,” J Virol 70, pp. 3706–15, hereby incorporated by reference in its entirety, maybe used to screen for inhibitors of capsid assembly. Briefly, in vitro transcription of chimeric gag -containing plasmids to produce capped RNA transcripts may be performed using the mMESSAGE MMACHINE kit (Ambion, Austin, Tex.), in accordance with the manufacturers instructions. Translation reactions may be performed in the presence of [^35S]methionine in commercially-available rabbit reticulocyte lysates, according to the instructions of the manufacturer (for example, Promega). […]

Chimera 3a = biological target: T2, Chimera 3a (Human immunodeficiency virus type 1 group M subtype B, UniProt P04591); assay: In vitro transcription/translation and assembly, sucrose density gradient fractionation and SDS-PAGE, Chimera 3a Gag; format: biochemical, HIV / M-PMV; details: added with cyclohexamide after 30 minutes of incubation, reaction continued 90 minutes
T2 construct: made in house; host or cells: cell-free: in vitro transcription/translation (reticulocyte lysate) from plasmid pDABCh3a
Procedure: (§3) FIGS. 3A–E—In vitro transcription and translation reactions using plasmids containing M-PMV, HIV, and Chimera 3a gag genes. After 30 minutes of incubation, cyclohexamide (left panels, FIGS. 3A, 3C, and 3E) or cyclohexamide plus bis-ANS (right panels, FIGS. 3B, 3D, and 3F) were added to the reactions. The reactions were then allowed to continue for an additional 90 minutes. Assembled products were analyzed by sucrose density gradient fractionation and SDS-PAGE. Like M-PMV, but in contrast to HIV, the formation of sedimented material indicative of particle formation by Chimera 3a has been inhibited by the addition of bis-ANS.
as §2

M-PMV Gag [1] = biological target: T3, M-PMV Gag (Mason-Pfizer monkey virus, UniProt P07567); assay: In vitro transcription/translation, pelleting through a sucrose cushion (rapid centrifugation assay), M-PMV Gag; format: biochemical; details: added after 30 minutes, continued 90 minutes; sucrose cushion 35% w/v
T3 construct: made in house; host or cells: cell-free: coupled in vitro transcription/translation in rabbit reticulocyte lysate
Procedure: FIG. 5—In vitro transcription and translation reactions using plasmids containing M-PMV gag genes. After 30 minutes of incubation, anti-p 12 antibody or bis-ANS was added to the reactions. The reactions were then allowed to continue for an additional 90 minutes. Assembled products were analyzed by pelleting through a sucrose cushion (35% w/v). Synthesis reactions were pelleted through a sucrose cushion, and supernatant and pellet were then collected for gel analysis. […] Lanes S and P indicate supernatant and pellet, respectively.

M-PMV Gag [2] = biological target: T3, M-PMV Gag; assay: In vitro transcription/translation and assembly, sucrose density gradient fractionation and SDS-PAGE, M-PMV Gag; format: biochemical; details: added with cyclohexamide after 30 minutes of incubation, reaction continued 90 minutes
Procedure: as §3
as §1, with “respectively. […]” for “respectively.”

HIV Gag = biological target: T4, HIV Gag (Human immunodeficiency virus type 1 group M subtype B, UniProt P04591); assay: In vitro transcription/translation, sucrose density gradient fractionation and SDS-PAGE, HIV Gag; format: biochemical; details: added with cyclohexamide after 30 minutes of incubation, reaction continued 90 minutes
T4 construct: made in house; host or cells: cell-free: in vitro transcription/translation (reticulocyte lysate)
Procedure: as §3, §2

T3 sequence (P07567 whole entry): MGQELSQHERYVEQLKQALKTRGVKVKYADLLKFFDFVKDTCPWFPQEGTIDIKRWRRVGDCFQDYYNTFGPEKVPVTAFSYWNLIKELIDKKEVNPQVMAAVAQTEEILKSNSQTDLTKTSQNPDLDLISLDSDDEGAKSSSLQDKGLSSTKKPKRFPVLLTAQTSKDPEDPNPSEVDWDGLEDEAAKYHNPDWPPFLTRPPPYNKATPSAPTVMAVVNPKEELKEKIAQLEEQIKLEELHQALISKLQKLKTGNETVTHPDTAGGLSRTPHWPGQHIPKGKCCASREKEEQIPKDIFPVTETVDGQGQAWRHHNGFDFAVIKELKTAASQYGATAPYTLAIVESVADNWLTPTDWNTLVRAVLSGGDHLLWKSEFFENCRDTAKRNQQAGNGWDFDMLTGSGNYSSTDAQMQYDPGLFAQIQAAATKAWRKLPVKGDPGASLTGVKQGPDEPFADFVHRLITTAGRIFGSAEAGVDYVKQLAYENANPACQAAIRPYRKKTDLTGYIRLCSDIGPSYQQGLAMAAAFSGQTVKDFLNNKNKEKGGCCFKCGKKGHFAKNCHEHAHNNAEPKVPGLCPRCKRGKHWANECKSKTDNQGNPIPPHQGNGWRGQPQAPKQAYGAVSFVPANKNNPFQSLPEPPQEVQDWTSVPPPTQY

O=S(=O)(O)c1cccc2c(-c3ccc(Nc4ccccc4)c4c(S(=O)(=O)O)cccc34)ccc(Nc3ccccc3)c12 [bis-ANS]
formation of sedimented material by Chimera 4 (Chimera 4): inhibited; also recorded: largely blocked
formation of sedimented material indicative of particle formation by Chimera 3a (Chimera 3a): inhibited; also recorded: largely blocked
formation of pelletable material by M-PMV Gag (immature M-PMV viral capsids) (M-PMV Gag [1]): reduce or prevent; also recorded: significantly reduce
formation of sedimented material by M-PMV Gag (M-PMV Gag [2]): inhibited
distribution of HIV Gag in sucrose gradients (HIV Gag): no effect
